Experimental data as given in patent US20150083146A1, “PERSONAL VAPORIZER LIQUID FOR E[…]-SOLUBLE COMPOUNDS AND RESINS” (Verso PV, LLC, priority 2013, published 2015).
Where a name gives a salt, the structure may show the parent alone.

Columns and labels:
[1] = Emulsion stability (visual separation test; storage, sunlight, temperature); format: physicochemical; details: after mixing with heat and agitation; initial observation
Source text: In some embodiments of the present invention, a stable emulsion containing oil-soluble compounds and/or resins in a liquid base is provided. The stable emulsion may be stored in a container suitable for delivery to a consumer. The stable emulsion may be provided in a vial, cartridge or other container. Preferably the container is air-tight. The stability of the emulsion may be measured or quantified by no visible separation after 30 days.
In this example, a series of liquid compositions were prepared and evaluated for their emulsion stability. Varying compositions were tested that utilized different lipid solubilizers (8 in total). The liquid base in these compositions was propylene glycol. Test samples (liquid compositions including cannabis extract) were subjected to a range of conditions: temperature, sunlight, extended storage, and varied ingredient concentration. Various types of cannabis extract were also tested. For each test sample, observations were noted about the color, viscosity, general visual appearance of each sample, and any changes seen over time.
Materials and Methods: Testing was performed in 20 ml glass scintillation vials. Mixing of the liquid base and lipid solubilizer was done entirely in borosilicate glassware, and ingredients were measured by mass using an AND EJ-610 balance. Samples were heated using a Scilogex MS7-H55O digitally controlled hot plate. Cannabis extract was produced using an Apeks closed-system solvent extractor running instrument grade propane. […]
Formula preparation: Formulas using lipid solubilizers were prepared in three concentrations: 0.1%, 0.5% and 1.0% by mass, in a solvent base of propylene glycol. […] Stock solutions were made of each of the eight lipid solubilizers at each of the three concentrations, producing a total of 24 different formulas at a quantity of approximately 500 ml each. […] After cooling the formula was ready for use. […]
Test Sample preparation: For each sample, the appropriate quantity of cannabis extract and liquid formula were added to a vial. […]

[2] = Viscosity rating of liquid compositions (cannabis extract emulsions in propylene glycol formulas); format: physicochemical; details: cannabis extract emulsion in propylene glycol
Protocol: The liquid composition comprising the oil-soluble compounds or resin should have a density and viscosity suitable for use in a personal vaporizer. […] For example, a liquid composition having a […] of about 100 cps, alternatively about 75 cps or less, alternatively about 50 cps or less, alternatively about 42 cps (the viscosity of propylene glycol) or more. The foregoing values can be combined to form a range. Viscosity values are determined at 25° C. using standard equipment for measuring viscosity of liquids.
Test Sample preparation: For each sample, the appropriate quantity of cannabis extract and liquid formula were added to a vial. The vial was placed on a hot plate at 85° C. until the extract melted. The vial was gently shaken to disperse the extract. Each of the formula recipes were tested with five concentrations of extract: 5%, 10%, 20%, 33%, and 50%, by mass. For example: to produce a 10% extract sample we placed 9.00 grams of one of the stock oil emulsifier formulas, and 1.00 grams of one of cannabis extracts in a 20 ml scintillation vial and applied heat. The components remained separate until heat and agitation are applied.
The viscosity of each sample is rated, in which “1” indicates lower viscosity, “2” indicates moderate viscosity, and “3” indicates higher viscosity.

CC(=O)OCC(COC(C)=O)OC(C)=O [triacetin, Triacetin]
formation of a stable emulsion [1]: appeared to perform adequately

CCCCCCCC(=O)OCC(O)CO (centres unmarked) [MCM C8, Glyceryl Caprylate]
viscosity (in words) [2]: least viscosity

CCCCCCCCCCCC(=O)OCC(O)CO (centres unmarked) [Monolaurin, Glyceryl Monolaurate]
formation of a stable emulsion [1]: effective and flavorless emulsifier

Propylene Glycol Monolaurate [PG-12]
viscosity (in words) [2]: most viscous

CCOC(=O)CC(O)(CC(=O)OCC)C(=O)OCC [triethyl citrate, Triethyl Citrate]
formation of a stable emulsion [1]: appeared to perform adequately
